From patent US9828350B2, “5,6-dihydro-2H-[1,4]oxazin-3-yl-amine derivatives useful as inhibitors of beta-secretase (BACE)” (Janssen Pharmaceutica NV, priority 2010, dated 2017) come the findings set out here.

The structures appear in SMILES notation.

Data set [1] addresses recombinant BACE1 protein (Homo sapiens, UniProt P56817). As to the kind of experiment: Biochemical FRET based assay. The settings on record: recombinant BACE1 1 μg/ml, 120 minutes at room temperature, pH 5.0; for IC50: read-out: Biochemical FRET based assay pIC50 (converted). The method, boiled down: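 Proteolysis was read as the rise in donor fluorescence (320 nm excitation, 405 nm emission) from T0 to T120, expressed in RFU. The reaction ran 120 minutes at room temperature at pH 5.0 in citrate buffer with 4% DMSO, using […] quenched Swedish APP peptide and 1 μg/ml BACE1.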

A further data set concerns Abeta total. As to the kind of experiment: Cellular αLisa assay in SKNBE2 cells, Abeta total. It counts as cell-based, human. To be noted: incubated for 18 hours; for IC50: Homo sapiens, SKNBE2, 18 h, read-out: Cellular αLisa assay in SKNBE2 cells Abetatotal pIC50 (converted). An outline of the steps: (§1)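 Secreted Abeta levels were measured by sandwich αLisa, pairing biotin-AbN/25 donor beads with Ab4G8 acceptor beads for total Abeta or cAb42/26 for Abeta 1-42, read at 615 nm after 650 nm excitation following 1 hour. Cells were SKNBE2 expressing wild-type hAPP695, exposed to compound for 18 hours.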

For another data set, the system named is Abeta 1-42. As to the kind of experiment: Cellular αLisa assay in SKNBE2 cells, Abeta 1-42. It counts as cell-based, human. The settings on record: incubated for 18 hours; for IC50: Homo sapiens, SKNBE2, 18 h, read-out: Cellular αLisa assay in SKNBE2 cells Abeta 42 pIC50 (converted). An outline of the steps: as §1

Chain of recombinant BACE1 protein (P56817 46-501): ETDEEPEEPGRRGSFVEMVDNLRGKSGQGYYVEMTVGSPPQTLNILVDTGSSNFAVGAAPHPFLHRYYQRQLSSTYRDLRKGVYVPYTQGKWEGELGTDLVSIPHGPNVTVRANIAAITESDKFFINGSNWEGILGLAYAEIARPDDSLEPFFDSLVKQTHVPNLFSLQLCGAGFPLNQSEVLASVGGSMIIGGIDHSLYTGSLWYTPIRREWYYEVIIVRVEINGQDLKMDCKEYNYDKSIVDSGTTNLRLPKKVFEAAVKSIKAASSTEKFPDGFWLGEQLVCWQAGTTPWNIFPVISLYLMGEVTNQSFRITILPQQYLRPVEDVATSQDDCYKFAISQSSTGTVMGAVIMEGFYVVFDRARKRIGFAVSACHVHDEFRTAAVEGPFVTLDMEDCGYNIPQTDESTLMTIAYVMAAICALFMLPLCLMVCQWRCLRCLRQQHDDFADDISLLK

What is called melting point is the temperature, or range, at which the solid turns liquid. Regarding `CC1(c2cc(NC(=O)c3ncc(Cl)cc3Cl)ccc2F)N=C(N)COC1F` (single isomer, unassigned) [Compound 128], the melting point came to 93.3 °C. The IC50 in data set [1] was 5750 nM. Besides, in the data set on Abeta total, the “Cellular αLisa assay in SKNBE2 cells Abetatotal pIC50” value is given as 6.02. Further, the “Cellular αLisa assay in SKNBE2 cells Abeta 42 pIC50” value in the data set on Abeta 1-42 amounted to 6.0.
On to `CC1(c2cc(NC(=O)c3ncc(Cl)cc3F)ccc2F)N=C(N)COC1F` (single isomer, unassigned) [Compound 130], for which the melting point is 116.4 °C. Moreover, in data set [1], the IC50 is 1910 nM. In the data set with Abeta total, the “Cellular αLisa assay in SKNBE2 cells Abetatotal pIC50” value stood at 6.48. For the same molecule, in the data set on Abeta 1-42, the “Cellular αLisa assay in SKNBE2 cells Abeta 42 pIC50” value is 6.47.
On to `C[C@]1(c2cc(-c3cncnc3)c(F)cc2F)N=C(N)CO[C@@H]1F` (single isomer, unassigned) [Compound 148, (R*,R*)-5-(2,4-difluoro-5-pyrimidin-5-ylphenyl)-6-fluoro-5-methyl-5,6-dihydro-2H-1,4-oxazin-3-amine], for which the melting point came to 186.2 °C. For the same molecule, the IC50 in data set [1] was greater than 30200 nM. Besides, the IC50 with Abeta total is greater than 10000 nM. In the data set with Abeta 1-42, the IC50 was greater than 10000 nM.
Consider `CC1(c2cccc(NC(=O)c3ncc(Cl)cc3F)c2)N=C(N)COC1(F)C(F)(F)F` (single isomer, unassigned) [Compound 172], for which the melting point stood at 180.17 °C. For the same molecule, in data set [1], the IC50 is 513 nM. Besides, the “Cellular αLisa assay in SKNBE2 cells Abetatotal pIC50” value with Abeta total came out at 6.81. Besides, the “Cellular αLisa assay in SKNBE2 cells Abeta 42 pIC50” value with Abeta 1-42 is listed as 6.74.
`CC1(c2cccc(NC(=O)c3ncc(Cl)cc3F)c2)N=C(N)COC1(F)C(F)(F)F` (single isomer, unassigned) [Compound 174] registered a melting point of 179.18 °C. For the same molecule, the IC50 in data set [1] was greater than 30200 nM. In addition, the “Cellular αLisa assay in SKNBE2 cells Abetatotal pIC50” value in the data set on Abeta total is reported as less than 5. Further, the “Cellular αLisa assay in SKNBE2 cells Abeta 42 pIC50” value in the data set on Abeta 1-42 is less than 5.
Take `CC1(c2cccc(NC(=O)c3ccncn3)c2)N=C(N)COC1(F)C(F)(F)F` (single isomer, unassigned) [Compound 187]: the melting point came out at 189.64 °C. The IC50 in data set [1] was 10200 nM. Besides, the “Cellular αLisa assay in SKNBE2 cells Abetatotal pIC50” value in the data set with Abeta total was 5.95. Also, the “Cellular αLisa assay in SKNBE2 cells Abeta 42 pIC50” value in the data set on Abeta 1-42 is listed as 5.92.
The matching figures for `CC1(c2cccc(NC(=O)c3ccncn3)c2)N=C(N)COC1(F)C(F)(F)F` (single isomer, unassigned) [Compound 189]: 189.29 °C, greater than 30200 nM, less than 5 and less than 5.
For the molecule `CC1(c2cc(-c3cncnc3)c(F)cc2F)COC2(CC2)C(N)=N1` (stereo not drawn) [Compound 72], the melting point came to 213.1 °C. In data set [1], the IC50 was 2630 nM. Also, the IC50 in the data set on Abeta total was 646 nM. Further, in the data set on Abeta 1-42, the IC50 is 631 nM.
With `CC1(c2cc(-c3cncnc3)c(F)cc2F)N=C(N)COC1F` (stereo not drawn) [Compound 84], the melting point was found to be 195.3 °C. Besides, in data set [1], the IC50 is 22900 nM. The IC50 in the data set with Abeta total is 4470 nM. For the same molecule, the IC50 in the data set with Abeta 1-42 was 3890 nM.
Regarding `COc1cncc(-c2cccc(C3(C)N=C(N)COC3F)c2)c1` (stereo not drawn) [Compound 87], the melting point came out at 139.23 °C. In addition, the “Biochemical FRET based assay pIC50” value in data set [1] is listed as 5.81. Besides, in the data set with Abeta total, the “Cellular αLisa assay in SKNBE2 cells Abetatotal pIC50” value is 6.47. Further, in the data set on Abeta 1-42, the “Cellular αLisa assay in SKNBE2 cells Abeta 42 pIC50” value is 6.46.
With `CC1(c2cccc(-c3cncnc3)c2)N=C(N)COC1F` (stereo not drawn) [Compound 98], the melting point was determined as 189.3 °C. Besides, the IC50 in data set [1] is 2820 nM. For the same molecule, in the data set on Abeta total, the “Cellular αLisa assay in SKNBE2 cells Abetatotal pIC50” value is given as 6.14. Moreover, the “Cellular αLisa assay in SKNBE2 cells Abeta 42 pIC50” value in the data set with Abeta 1-42 is 6.19.
Taken in the same sequence, the figures for `CC1(c2cccc(-c3cncnc3)c2)N=C(N)COC1F` (stereo not drawn) [Compound 99] were 204.3 °C, 20900 nM, 5.73 and 5.87.
Take `COc1cncc(-c2ccc(F)c(C3(C)N=C(N)COC3C(F)(F)F)c2)c1` (stereo not drawn) [Compound 105]: the melting point came out at 196.9 °C. Further, in data set [1], the IC50 is 1550 nM. Besides, the IC50 in the data set on Abeta total is 224 nM. Further, in the data set on Abeta 1-42, the IC50 is 200 nM.
The matching figures for `C[C@]1(c2cc(-c3cncnc3)c(F)cc2F)COC2(CC2)C(N)=N1` [Compound 149]: 187.4 °C, greater than 30200 nM, 8910 nM and 8710 nM.
Molecule `C[C@]1(c2cc(NC(=O)c3ncc(Cl)cc3Cl)ccc2F)N=C(N)CO[C@@]1(F)C(F)(F)F` [Compound 181] yielded a melting point of 200.16 °C. Further, the IC50 in data set [1] was 26.3 nM. In addition, the IC50 in the data set with Abeta total was 13.5 nM. Also, the IC50 in the data set with Abeta 1-42 was 13.5 nM.
The molecule `C[C@]1(c2cc(NC(=O)c3ccc(C#N)cn3)ccc2F)N=C(N)CO[C@@]1(F)C(F)(F)F` [Compound 183] came in with a melting point of 196.01 °C. Moreover, the IC50 in data set [1] is 40.7 nM. Besides, the IC50 in the data set with Abeta total was 13.8 nM. For the same molecule, the IC50 in the data set on Abeta 1-42 is 14.5 nM.
The molecule `COc1cnc(C(=O)Nc2ccc(F)c([C@@]3(C)N=C(N)CO[C@]3(F)C(F)(F)F)c2)cn1` [Compound 184] came in with a melting point of 198.43 °C. Besides, the IC50 in data set [1] was 407 nM. The IC50 with Abeta total was 363 nM. In addition, the IC50 with Abeta 1-42 is 363 nM.
The molecule `C[C@]1(c2cc(NC(=O)c3ncc(Cl)cc3Cl)ccc2F)N=C(N)CO[C@]1(F)C(F)(F)F` [Compound 185] came in with a melting point of 165.14 °C. Also, the IC50 in data set [1] was 166 nM. Further, in the data set with Abeta total, the IC50 was 195 nM. Further, the IC50 with Abeta 1-42 was 200 nM.
The molecule `CC1(c2cc(NC(=O)c3ccc(Cl)cn3)cc(C(F)(F)F)c2)COCC(N)=N1` (stereo not drawn) [Compound 197] showed a melting point of 175.32 °C. The IC50 in data set [1] was 1000 nM. The IC50 with Abeta total is 166 nM. Further, the IC50 in the data set with Abeta 1-42 was 170 nM.
The molecule `COc1ccc(C(=O)Nc2ccc(F)c([C@@]3(C)N=C(N)CO[C@@H]3F)c2)nc1` [Compound 208] registered a melting point of 185.6 °C. In addition, the IC50 in data set [1] was 26.9 nM. The IC50 in the data set on Abeta total is 10 nM. For the same molecule, in the data set with Abeta 1-42, the IC50 was 11 nM.
The matching figures for `C[C@]1(c2cc(-c3cncnc3)c(F)cc2F)N=C(N)CO[C@]1(F)C(F)(F)F` [Compound 210]: greater than 300 °C, 12000 nM, greater than 10000 nM and greater than 10000 nM.
Molecule `C[C@]1(c2cc(-c3cncnc3)c(F)cc2F)N=C(N)CO[C@@]1(F)C(F)(F)F` [Compound 211] registered a melting point of 62 °C. In addition, the IC50 in data set [1] was 1410 nM. Also, the IC50 in the data set on Abeta total is 1740 nM. In addition, the IC50 with Abeta 1-42 is 2190 nM.
The matching figures for `C[C@]1(c2cc(-c3cncc(Cl)c3)c(F)cc2F)N=C(N)CO[C@]1(F)C(F)(F)F` [Compound 212]: 145.3 °C, 6460 nM, greater than 10000 nM and greater than 10000 nM.
Regarding `C[C@]1(c2cc(-c3cncc(Cl)c3)c(F)cc2F)N=C(N)CO[C@@]1(F)C(F)(F)F` [Compound 213], the melting point came to 70.1 °C. The IC50 in data set [1] is 437 nM. Also, the IC50 in the data set on Abeta total was 3720 nM. The IC50 with Abeta 1-42 was 4070 nM.
